Data: paper PMC7044166 (Scientific Reports, 2020)
Several values for one entry are separate records, joined by “and”; a condition that tells them apart may be missing. Equal values may be shown once. Read-outs that look alike come from different tables or passages of the source.

Experiments:
[1] = Pharmacokinetic interaction study of DSV and TAM/TOH after oral single or co-administration to Wistar rats (UPLC-MS/MS of plasma, NCA); assay type: in vivo; conditions: for change in PK parameters following co-administration compared with single administration: Group III (DSV 50 mg/kg + TAM 10 mg/kg, oral) vs Group I (DSV) and Group II (TAM), only exception tmax of TOH; for AUC(0-inf) / Tmax / half-life / Cmax: male, Wistar, rat, plasma, po, mean ± SD, n = 5; for half-life: read-out: t½ (converted); for Cmax: rat plasma; for M.R.(%) metabolite ratio: ratio of AUC0-∞ of TOH to that of TAM, rats
Method: The rats were acclimatized for seven days before starting the experiment. All rats were kept in a well-ventilated room and under standard laboratory conditions; 12 h day/night cycle, average temperature of 25 ± 2 °C, and average relative humidity of 50 ± 2%.
Three group of randomly distributed rats (n = 5) were used to conduct the study. […] Following drug administration, orbital blood samples (0.3 mL) were collected into a series of 1.5 mL polythene heparinized tubes prior to dosing (0 time) and at different time intervals following the drug administration; 0.25, 0.5, 1, 2, 4, 5, 12, 24, and 48 h. Immediate centrifugation (4,500 rpm) of collected blood samples was performed at 4 °C for 30 min. The resulting plasma samples were then stored at −20 °C until the day of analysis. Plasma samples (50 µL) were separately mixed with 50 µL OND, IS, (50 ng/mL), 150 µL of 2% formic acid, and finally completed to 1-mL volume with acetonitrile. Sample preparation was then carried out exactly as mentioned under the experimental section. […] These concentrations were then plotted versus the corresponding withdrawal time.
Plasma concentration-time data were treated by the non-compartmental analysis (NCA) method using PKSolver Add-In Excel 2010. Different PK parameters were calculated. They included maximum drug plasma concentration (Cmax) and the time required to reach the maximum plasma concentration (tmax). Both Cmax and tmax were derived from plasma concentration-time curve simply by visual inspection of the data. Using the PKSover, the elimination rate constant (Kel), the half-life (t1/2), the area under the plasma concentration-time curve from 0 time to the last sampling time t (AUC0-t), the area under the plasma concentration-time curve from 0 time to ∞ (AUC0-∞), and the apparent oral clearance (CL/F) were calculated. Kel was calculated from the slope of the plasma concentration-time curve during the elimination phase and from which t1/2 was derived, t1/2 = 0.693/Kel. The linear trapezoidal rule was used to calculate AUC0-t. The summation of AUC0-t and the extrapolated area from time t to ∞, calculated from the last measured concentration (Clast), result in total AUC from 0 time to ∞, AUC0-∞, AUC0-∞ = AUC0-t + (Clast/Kel). CL/F was calculated by dividing the dose by AUC0-∞. The relative bioavailability (R.B.) was obtained from the ratio of AUC0-∞ of the treated group to AUC0-∞ of the control group.

[2] = Stability of DSV, TAM and TOH in rat plasma under storage and treatment conditions; assay type: in vitro ADME; conditions: six determinations; for recovery at 56 h / recovery at 6 h / recovery / recovery at 30 days: Wistar, rat, rat plasma; for recovery at 56 h: rat plasma (prepared QC samples in the auto-injector), 10 °C, read-out: Auto-sampler stability, mean recovery (%) ± RSD; for recovery at 6 h / recovery / recovery at 30 days: rat plasma (spiked QC samples); for recovery at 6 h: 25 °C, read-out: Short-term stability, mean recovery (%) ± RSD; for recovery / recovery at 30 days: −30 °C; for recovery: 3 cycles, read-out: Freeze-thaw stability, mean recovery (%) ± RSD; for recovery at 30 days: read-out: Long-term stability, mean recovery (%) ± RSD; for recovery at 3 months: analyte solutions, 4 °C, read-out: Refrigerator stability, mean recovery (%) ± RSD
Method: This ensures that no detectable degradation was noticed and that all analytes were stable under the studied conditions. The analytes’ solutions were also stable when kept refrigerated at 4 °C for 3 months or at room temperature for up to 6 h.
Samples were subjected to different storage conditions. Auto-sampler stability was assessed by leaving prepared samples in the auto-injector (10 °C, 56 h) before the injection. Short-term (bench top) stability was evaluated by analyzing samples after being stored at room temperature (25 °C, 6 h). On the other hand, long-term stability was assessed by analyzing samples which had been frozen before analysis (−30 °C, 30 days). Stability of samples was also assessed following three freeze–thaw cycles (frozen at −30 °C, thawed at 25 °C).

[3] = set-up: method as in earlier work; conditions: cited from earlier work
[4] = tested on: estrogen-dependent cell proliferation; conditions: relative to TAM, cited from earlier work
[5] = oral co-administration of DSV 50 mg/kg and TAM 10 mg/kg (TOH as metabolite of TAM)
[6] = single oral administration, DSV 50 mg/kg or TAM 10 mg/kg (TOH as metabolite of TAM)
[7] = high concentration level (800, 400, 400 ng/mL for DSV, TAM, TOH)

SMILES | change in PK parameters following co-administration compared with single administration [1] | AUC(0-inf) [1, 5] [ng·h/mL] | Tmax [1, 5] [h] | half-life [1, 5] [h] | Cmax [1, 5] [ng/mL] | AUC(0-inf) [1, 6] [ng·h/mL] | Tmax [1, 6] [h] | half-life [1, 6] [h] | Cmax [1, 6] [ng/mL] | recovery at 56 h [2, 7] [%] | recovery at 56 h ([2]; low concentration level) [%] | recovery at 6 h [2, 7] [%] | recovery at 6 h ([2]; low concentration level) [%] | recovery ([2]; low concentration level) [%] | recovery at 30 days [2, 7] [%] | recovery at 30 days ([2]; low concentration level) [%] | recovery at 3 months [2, 7] [%] | recovery at 3 months ([2]; low concentration level) [%] | also measured
COc1c(-c2ccc3cc(NS(C)(=O)=O)ccc3c2)cc(-n2ccc(=O)[nH]c2=O)cc1C(C)(C)C [DSV, Dasabuvir] | no significant changes | 4660 ± 687 | 4.98 ± 0.61 | 19.7 ± 5.41 | 159 ± 49 | 4270 ± 754 | 4.95 ± 1.07 | 17.9 ± 5.93 | 144 ± 26.5 | 98.5 | 95.5 | 95 | 96.3 | 98.5 | 98.8 | 96.8 | 97.6 | 96.2 | pKa (pK1) [3]: 8.2; pKa (pK2) [3]: 9.2
CC/C(=C(\c1ccccc1)c1ccc(OCCN(C)C)cc1)c1ccccc1 [TAM, Tamoxifen] | – | 3510 ± 464 | 3.03 ± 0.66 | 17.7 ± 3.42 | 288 ± 81 | 3880 ± 407 | 2.03 ± 0.95 | 15.8 ± 5.18 | 307 ± 109 | 93.5 | 98.2 | 96.8 | 98.2 | 96.1 | 97.3 | 99.7 | 96.6 | 98.9 | –
CC/C(=C(\c1ccc(O)cc1)c1ccc(OCCN(C)C)cc1)c1ccccc1 [TOH, 4-hydroxy tamoxifen] | no significant changes | 4550 ± 913 | 5.03 ± 0.66 | 19.7 ± 1.41 | 164 ± 54.5 | 4730 ± 774 | 2.03 ± 0.95 | 28.8 ± 1.98 | 172 ± 54 | 95.2 | 99.7 | 98.9 | 96.9 | 97.5 | 95.8 | 99 | 97 | 98 | reported estrogenic properties, times more potent than TAM ([4]; at least, reported): 30–100 times; times more potent than TAM in inhibiting estrogen-dependent cell proliferation [4]: 30 to 100 times; M.R.(%) metabolite ratio ([1]; oral co-administration of DSV 50 mg/kg and TAM 10 mg/kg): 129.65 ± 10.88%; M.R.(%) metabolite ratio ([1]; single oral TAM 10 mg/kg): 121.86 ± 11%; pka [3]: 8.66 and 9.45
